Measurements as given in patent publication US7371773B2, “Breast cancer resistance protein (BCRP) inhibitor” (Kabushiki Kaisha Yakult Honsha, priority 2003, dated 2008).
≈ marks a conversion by molar mass, not a printed value. Counter-ions that a name gives are not always drawn.

What was measured:
A549/SN-38-4 cell line = experiment: Overcoming anticancer drug resistance of A549/SN-38-4 cell line; assay type: cell-based, human; settings: for EC50: Homo sapiens, A549, SN-38 resistance, concentration for 50% reduction of relative resistance value, 48 hours, read-out: Resistance overcoming effect EC50
Method: The effect of a diphenylacrylonitrile derivative on BCRP-mediated anticancer drug resistance was studied by use of the human lung cancer A549/SN-38-4 cell line, which had acquired anticancer drug resistance through BCRP expression. The human lung cancer A549 cell line or the A549/SN-38-4 cell line was suspended in 10% FBS/Ham's F-12, and the resultant suspension was inoculated into a 96-well microplate, followed by culturing at 5% CO2 and 37° C. overnight (2×10^3 cells/50 μL/well). Thereafter, a 10% FBS/Ham's F-12 solution (25 μL) containing a diphenylacrylonitrile derivative and SN-38 or mitoxantrone was added to each of the wells, followed by culturing at 5% CO2 and 37° C. for 48 hours. After completion of culturing, the number of viable cells was counted by use of TetraColor ONE according to the attached instruction manual. […] The greater the relative resistance value, the higher the level of acquired resistance.

MES-SA/Dx5 cell line = experiment: Effect on multidrug resistance of MES-SA/Dx5 cell line; assay type: cell-based; settings: Homo sapiens; paclitaxel resistance, MES-SA/Dx5 (P-glycoprotein overexpression), 48 hours; read-out: Resistance overcoming effect EC50
Method: Human uterine cancer MES-SA cell line or MES-SA/Dx5 cell line which had acquired multidrug resistance through overexpression of P-glycoprotein [Cancer Res. 45, 4091-4096 (1985)] was suspended in 10% FBS/DMEM, and the resultant suspension was inoculated into a 96-well microplate, followed by culturing at 5% CO2 and 37° C. overnight (3×10^3 cells/50 μL/well). Thereafter, a solution of a diphenylacrylonitrile derivative and paclitaxel in 10% FBS/DMEM (25 μL) was added to each of the wells, followed by culturing at 5% CO2 and 37° C. for 48 hours. After completion of culturing, the number of viable cells was counted by use of TetraColor ONE according to the attached instruction manual.

P388/BCRP cell line = experiment: Overcoming anticancer drug resistance in vivo (survival of tumor-implanted mice); parameters: species or system CDF1 mice; settings: compound 100 mg/kg/day + CPT-11 20 mg/kg/day i.p. once a day, 10 administrations

Row | EC50 (A549/SN-38-4 cell line) [µg/mL] | SMILES | EC50 (MES-SA/Dx5 cell line) [µg/mL] | other results
1 | 0.28 (≈ 0.813 µM) | COc1ccc(/C(C#N)=C/c2ccc(Br)cc2)cc1OC [Compound 12, (Z)-3-(4-bromo-phenyl)-2-(3,4-dimethoxy-phenyl)-acrylonitrile] | > 1 | 
2 | 0.023 (≈ 0.0739 µM) | COc1cc(/C(C#N)=C/c2ccc(O)cc2)cc(OC)c1OC [Compound 15, (Z)-3-(4-hydroxy-phenyl)-2-(3,4,5-trimethoxy-phenyl)-acrylonitrile] | > 1 | 
3 | 0.098 (≈ 0.348 µM) | COc1ccc(/C(C#N)=C/c2ccccc2O)cc1OC [Compound 6, (Z)-2-(3,4-dimethoxy-phenyl)-3-(2-hydroxy-phenyl)-acrylonitrile] | > 1 | 
4 | 0.016 (≈ 0.0492 µM) | COc1ccc(/C=C(\C#N)c2ccc(OC)c(OC)c2)cc1OC [Compound 56, (Z)-2,3-bis-(3,4-dimethoxy-phenyl)-acrylonitrile] |  | 
5 | 0.022 (≈ 0.0758 µM) | COc1ccc(/C(C#N)=C/c2ccc(C#N)cc2)cc1OC [Compound 21, 4-[(Z)-2-cyano-2-(3,4-dimethoxy-phenyl)-vinyl]-benzonitrile] |  | 
6 | 0.038 | CCOC(=O)CCC(=O)Oc1ccc(/C=C(\C#N)c2ccc(OC)c(OC)c2)cc1 [Compound 42, 4-[(Z)-2-cyano-2-(3,4-dimethoxy-phenyl)-vinyl]-phenyl ethyl succinate] |  | 
7 | < 0.005 | COc1ccc(/C(C#N)=C/c2cc(F)cc(F)c2)cc1OC [Compound 26, (Z)-3-(3,5-difluoro-phenyl)-2-(3,4-dimethoxy-phenyl)-acrylonitrile] |  | 
8 | 0.043 (≈ 0.144 µM) | COc1ccc(/C(C#N)=C/c2ccc(O)c(F)c2)cc1OC [Compound 59, (Z)-2-(3,4-dimethoxy-phenyl)-3-(3-fluoro-4-hydroxy-phenyl)-acrylonitrile] |  | 
9 | 0.01 | COc1ccc(/C=C(\C#N)c2ccc(OC(C)=O)c(F)c2)cc1OC [Compound 64, 4-[(Z)-1-cyano-2-(3,4-dimethoxy-phenyl)-vinyl]-2-fluoro-phenyl acetate] |  | 
10 | 0.0063 (≈ 0.0222 µM) | COc1ccc(/C(C#N)=C/c2ccc(F)cc2)cc1OC [Compound 18, (Z)-2-(3,4-dimethoxy-phenyl)-3-(4-fluoro-phenyl)-acrylonitrile] |  | 
11 | 0.024 | CCOc1cc(/C(C#N)=C/c2ccc(OC)c(OC)c2)ccc1OC(C)=O [Compound 63, 4-[(Z)-1-cyano-2-(3,4-dimethoxy-phenyl)-vinyl]-2-ethoxy-phenyl acetate] |  | 
12 | 0.048 (≈ 0.147 µM) | COc1ccc(/C(C#N)=C/c2ccc([N+](=O)[O-])c(O)c2)cc1OC [Compound 53, (Z)-2-(3,4-dimethoxy-phenyl)-3-(3-hydroxy-4-nitro-phenyl)-acrylonitrile] |  | 
13 | 0.053 (≈ 0.155 µM) | COc1ccc(/C(C#N)=C/c2cc(O)c(OC)c(OC)c2)cc1OC [Compound 78, (Z)-2-(3,4-dimethoxy-phenyl)-3-(3-hydroxy-4,5-dimethoxy-phenyl)-acrylonitrile] |  | 

Second part, the compound before the results:

Row | SMILES | EC50 (A549/SN-38-4 cell line) [µg/mL] | EC50 (MES-SA/Dx5 cell line) [µg/mL] | other results
14 | COc1ccc(/C(C#N)=C/c2cccc(F)c2)cc1OC [Compound 13, (Z)-2-(3,4-dimethoxy-phenyl)-3-(3-fluoro-phenyl)-acrylonitrile] | 0.013 (≈ 0.0459 µM) | > 1 | Survival days Mean ± S.D. (P388/BCRP cell line; Table 6): 20.6 ± 0.9 days; T/C (P388/BCRP cell line; Table 6): 172%
15 | CCOc1cc(/C=C(\C#N)c2ccc(OC)c(OC)c2)ccc1O [Compound 11, (Z)-2-(3,4-dimethoxy-phenyl)-3-(3-ethoxy-4-hydroxy-phenyl)-acrylonitrile] | 0.047 (≈ 0.144 µM) | > 1 | Survival days Mean ± S.D. (P388/BCRP cell line; Table 6): 19.4 ± 0.5 days; T/C (P388/BCRP cell line; Table 6): 162%
16 | COc1ccc(/C(C#N)=C/c2ccc(O)cc2)cc1OC [Compound 1, (Z)-2-(3,4-dimethoxyphenyl)-3-(4-hydroxyphenyl)acrylonitrile] | 0.051 (≈ 0.181 µM) | > 1 | Survival days Mean ± S.D. (P388/BCRP cell line; Table 6): 19.4 ± 1.1 days; T/C (P388/BCRP cell line; Table 6): 162%
17 | N#C/C(=C\c1ccc(O)cc1)c1ccc(O)cc1 [Compound 16, (Z)-2,3-bis-(4-hydroxy-phenyl)-acrylonitrile] | 0.098 (≈ 0.413 µM) | > 1 | Survival days Mean ± S.D. (P388/BCRP cell line; Table 6): 19.2 ± 0.4 days; T/C (P388/BCRP cell line; Table 6): 160%
18 | COc1ccc(/C(C#N)=C/c2cccc(N)c2)cc1OC [Compound 68, (Z)-3-(3-amino-phenyl)-2-(3,4-dimethoxy-phenyl)-acrylonitrile hydrochloride] |  |  | Resistance overcoming effect EC50 (A549/SN-38-4 cell line): 0.048 µg/mL; Survival days Mean ± S.D. (P388/BCRP cell line; Table 7, hydrochloride): 18.8 ± 2.9 days
19 | COc1ccc(/C(C#N)=C/c2ccc(OC(=O)N3CCC(N4CCCCC4)CC3)cc2)cc1OC [Compound 2, 4-[(Z)-2-cyano-2-(3,4-dimethoxy-phenyl)-vinyl]-phenyl [1,4′]bipiperidinyl-1′-carboxylate] | 0.41 (≈ 0.862 µM) | > 1 | 
20 | COc1ccc(/C(C#N)=C/c2cc(C)c(O)c(C)c2)cc1OC [Compound 10, (Z)-2-(3,4-dimethoxy-phenyl)-3-(4-hydroxy-3,5-dimethyl-phenyl)-acrylonitrile] | 0.023 (≈ 0.0743 µM) | > 1 | 
21 | COc1ccc(/C(C#N)=C/c2cccc(O)c2)cc1OC [Compound 5, (Z)-2-(3,4-dimethoxy-phenyl)-3-(3-hydroxy-phenyl)-acrylonitrile] | 0.021 (≈ 0.0747 µM) | > 1 | Survival days Mean ± S.D. (P388/BCRP cell line; Table 6): 19.2 ± 1.1 days; T/C (P388/BCRP cell line; Table 6): 160%
22 | COc1ccc(/C(C#N)=C/c2cccc(O)c2OC)cc1OC [Compound 9, (Z)-2-(3,4-dimethoxy-phenyl)-3-(3-hydroxy-2-methoxy-phenyl)-acrylonitrile] | 0.028 (≈ 0.0899 µM) | > 1 | 
23 | COc1ccc(/C(C#N)=C/c2cccc(N)c2)cc1OC [Compound 57, (Z)-3-(3-amino-phenyl)-2-(3,4-dimethoxy-phenyl)-acrylonitrile] | 0.037 (≈ 0.132 µM) |  | Survival days Mean ± S.D. (P388/BCRP cell line; Table 7): 18.8 ± 0.8 days; T/C (P388/BCRP cell line; Table 7): 145%
24 | COc1ccc(/C(C#N)=C/c2ccc(OC(C)=O)cc2)cc1OC [Compound 3, 4-[(Z)-2-cyano-2-(3,4-dimethoxy-phenyl)-vinyl]-phenyl acetate] | 0.02 | > 1 | Survival days Mean ± S.D. (P388/BCRP cell line; Table 6): 19.8 ± 0.8 days; T/C (P388/BCRP cell line; Table 6): 165%
25 | COCCOCOc1ccc(/C=C(\C#N)c2ccc(OC)c(OC)c2)cc1 [Compound 4, (Z)-2-(3,4-dimethoxy-phenyl)-3-[4-(2-methoxy-ethoxymethoxy)-phenyl]-acrylonitrile] | 0.079 (≈ 0.214 µM) | > 1 | 
26 | COc1ccc(/C(C#N)=C/c2ccccc2[N+](=O)[O-])cc1OC [Compound 37, (Z)-2-(3,4-dimethoxy-phenyl)-3-(2-nitro-phenyl)-acrylonitrile] | 0.085 (≈ 0.274 µM) |  | 
27 | COCCOCOc1ccc(/C=C(\C#N)c2ccc(OC)c(OC)c2)cc1F [Compound 58, (Z)-2-(3,4-dimethoxy-phenyl)-3-[3-fluoro-4-(2-methoxy-ethoxymethoxy)-phenyl]-acrylonitrile] | 0.033 (≈ 0.0852 µM) |  | 
28 | CCCCOc1ccc(/C(C#N)=C/c2ccc(O)cc2)cc1 [Compound 14, (Z)-2-(4-butoxy-phenyl)-3-(4-hydroxy-phenyl)-acrylonitrile] | 0.047 (≈ 0.16 µM) | > 1 | 
29 | COc1ccc(/C(C#N)=C/c2ccccc2F)cc1OC [Compound 20, (Z)-2-(3,4-dimethoxy-phenyl)-3-(2-fluoro-phenyl)-acrylonitrile] | 0.053 (≈ 0.187 µM) |  | 
30 | COc1ccc(/C(C#N)=C/c2ccc(O)cc2)cc1OC.[Na] [Compound 17, (Z)-2-(3,4-dimethoxy-phenyl)-3-(4-hydroxy-phenyl)-acrylonitrile sodium salt] | 0.018 |  | 
31 | COc1ccc(/C(C#N)=C/c2ccc(OP(=O)(O)O)c(OC)c2)cc1OC [Compound 71, mono-{4-[(Z)-2-cyano-2-(3,4-dimethoxy-phenyl)-vinyl]-2-methoxy-phenyl} phosphate] |  |  | Resistance overcoming effect EC50 (A549/SN-38-4 cell line): 0.29 µg/mL
32 | COc1cc(/C=C(\C#N)c2ccc(OC)c(OC)c2)ccc1O [Compound 7, (Z)-2-(3,4-dimethoxy-phenyl)-3-(4-hydroxy-3-methoxy-phenyl)-acrylonitrile] | 0.025 (≈ 0.0803 µM) | > 1 | Survival days Mean ± S.D. (P388/BCRP cell line; Table 6): 20.0 ± 0.7 days; T/C (P388/BCRP cell line; Table 6): 167%
33 | COc1ccc(/C(C#N)=C/c2ccc(O)c(O)c2)cc1OC [Compound 8, (Z)-3-(3,4-dihydroxy-phenyl)-2-(3,4-dimethoxy-phenyl)-acrylonitrile] | 0.035 (≈ 0.118 µM) | > 1 | Survival days Mean ± S.D. (P388/BCRP cell line; Table 6): 19.2 ± 0.8 days; T/C (P388/BCRP cell line; Table 6): 160%
